Experimental data reported in patent US12275718B2, “Small molecule inhibitors of galectin-3” (BRISTOL-MYERS SQUIBB COMPANY, priority 2018, dated 2025).

What follows are molecules tested against His-tagged recombinant human Gal-3 (hGal-3) (Homo sapiens, UniProt P17931) (assay: Gal-3 HTRF assay (His-tagged hGal-3 / B-ASF)). Settings: hGal-3 15 nM, B-ASF 15 nM, room temperature, three replicates.
Type: binding
Procedure: • ASSAY BUFFER Composition: 25 mM HEPES, 100 mM NaCl, 0.005% Tween 20, 0.05% BSA prepared in sterile water (all reagents from Sigma) Controls: • Positive Control: 100% DMSO (1 μl)+His-tagged hGal-3 (20 μL)+B-ASF (20 μl)+Anti-His Terbium Antibody (5 μl)+Strep d2 Antibody (5 μl). • Negative Control: […] (1 μl)+His-tagged hGal-3 (20 μL)+Anti His Terbium Antibody (5 μl)+Strep d2 Aantibody (5 μl). Stocks Preparation:
PROTOCOL: The Gal-3 assays were performed in 384 white Opti plates in three replicates at room temperature with gentle shaking at 250-300 rpm From the original stocks, […] working stock concentrations of His-tagged recombinant human Gal-3 (hGal-3) and that of B-ASF were prepared. From the working stock, 20 μl of hGal-3 (15 nM) and 20 μl B-ASF (15 nM) were added to the plates. In Negative Control, only hGal-3 was added. A concentration range of 50× working stocks were prepared for the compounds in […]. Aliquots of 1 uL of the compounds were added to the wells and pre-incubated with 20 μl hGal-3 per well for 30 minutes Then 20 μl B-ASF were added and incubated for another 1 hour. To detect the signal, 5 μL (final conc. of 1.0 nM) terbium labelled Anti-His antibody was added and incubated for 30 min followed by adding 5 μL (final conc. of 20 nM) Streptavidin d2 and incubation for another 1 hour. The assay signal was detected using HTRF screen protocol (Excitation wavelength=340 nm, emission wavelength=615 nm/665 nm) on Envision 2104 Multilabel Reader. Data analysed using Toolset and Curve Master. Results are reported in the experimental section (IC50 in μM).

Chain of His-tagged recombinant human Gal-3 (hGal-3) (P17931 whole entry): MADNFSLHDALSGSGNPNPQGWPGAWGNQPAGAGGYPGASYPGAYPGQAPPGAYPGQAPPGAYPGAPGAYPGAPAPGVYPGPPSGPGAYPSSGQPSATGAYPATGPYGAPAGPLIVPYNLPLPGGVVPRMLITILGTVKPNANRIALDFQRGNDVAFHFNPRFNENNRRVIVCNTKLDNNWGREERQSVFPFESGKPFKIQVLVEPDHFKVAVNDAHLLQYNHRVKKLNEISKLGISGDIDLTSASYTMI

Structure (SMILES)	IC50
Cc1nc(C2OC(CO)C(O)C(n3cc(-c4cc(F)c(F)c(F)c4)nn3)C2OCC(=O)NCCCCCNC(=O)COC2C(c3nc(C)nn3-c3cc(Cl)ccc3Cl)OC(CO)C(O)C2n2cc(-c3cc(F)c(F)c(F)c3)nn2)n(-c2cc(Cl)ccc2Cl)n1 (stereo not drawn) [Example 2]	1 nM
Cc1nc([C@H]2O[C@@H](CO)[C@@H](O)[C@@H](n3cc(-c4cc(F)c(Cl)c(F)c4)nn3)[C@@H]2OCC(=O)NCCCNC(=O)CO[C@@H]2[C@@H](n3cc(-c4cc(F)c(Cl)c(F)c4)nn3)[C@@H](O)[C@@H](CO)O[C@H]2c2nc(C)nn2-c2cc(Cl)ccc2C(F)(F)F)n(-c2cc(Cl)ccc2C(F)(F)F)n1 [Example 6]	1 nM
Cc1nc([C@H]2O[C@@H](CO)[C@@H](O)[C@@H](n3cc(-c4cc(F)c(Cl)c(F)c4)nn3)[C@@H]2OCC(=O)NCCCCNC(=O)CO[C@@H]2[C@@H](n3cc(-c4cc(F)c(Cl)c(F)c4)nn3)[C@@H](O)[C@@H](CO)O[C@H]2c2nc(C)nn2-c2cc(Cl)ccc2C(F)(F)F)n(-c2cc(Cl)ccc2C(F)(F)F)n1 [Example 7]	1 nM
Cc1nc([C@H]2O[C@@H](CO)[C@@H](O)[C@@H](n3cc(-c4cc(F)c(Cl)c(F)c4)nn3)[C@@H]2OCC(=O)NCCCCCNC(=O)CO[C@@H]2[C@@H](n3cc(-c4cc(F)c(Cl)c(F)c4)nn3)[C@@H](O)[C@@H](CO)O[C@H]2c2nc(C)nn2-c2cc(Cl)ccc2C(F)(F)F)n(-c2cc(Cl)ccc2C(F)(F)F)n1 [Example 8]	1 nM
Cc1nc([C@H]2O[C@@H](CO)[C@@H](O)[C@@H](n3cc(-c4cc(F)c(Cl)c(F)c4)nn3)[C@@H]2OCC(=O)N(C)CCCCN(C)C(=O)CO[C@@H]2[C@@H](n3cc(-c4cc(F)c(Cl)c(F)c4)nn3)[C@@H](O)[C@@H](CO)O[C@H]2c2nc(C)nn2-c2cc(Cl)ccc2Cl)n(-c2cc(Cl)ccc2Cl)n1 [Example 15]	5 nM
Cc1nc(C2OC(CO)C(O)C(n3cc(-c4cc(F)c(F)c(F)c4)nn3)C2OC(=O)NCCCCNC(=O)OC2C(c3nc(C)nn3-c3cc(Cl)ccc3Cl)OC(CO)C(O)C2n2cc(-c3cc(F)c(F)c(F)c3)nn2)n(-c2cc(Cl)ccc2Cl)n1 [Example 18, (2R,3S,4R,5S,6S)-2-(1-(2,5-dichlorophenyl)-3-methyl-11H-1,2,4-triazol-5-yl)-5-hydroxy-6-(hydroxymethyl)-4-(4-(3,4,5-trifluorophenyl)-1H-1,2,3-triazol-1-yl)tetrahydro-2H-pyran-3-yl ((2S,3R,4S,5R,6R)-2-(1-(2,5-dichlorophenyl)-3-methyl-1H-1,2,4-triazol-5-yl)-5-hydroxy-6-(hydroxymethyl)-4-(4-(3,4,5-trifluorophenyl)-1H-1,2,3-triazol-1-yl)tetrahydro-2H-pyran-3-yl) butane-1,4-diyldicarbamate]	19 nM
Cc1nc([C@H]2O[C@@H](CO)[C@@H](O)[C@@H](n3cc(-c4cc(F)c(Cl)c(F)c4)nn3)[C@@H]2OC(=O)NCCCNC(=O)O[C@@H]2[C@@H](n3cc(-c4cc(F)c(Cl)c(F)c4)nn3)[C@@H](O)[C@@H](CO)O[C@H]2c2nc(C)nn2-c2cc(Cl)ccc2Cl)n(-c2cc(Cl)ccc2Cl)n1 [Example 19, (2R,3S,4R,5S,6S)-4-(4-(4-chloro-3,5-difluorophenyl)-1H-1,2,3-triazol-1-yl)-2-(1-(2,5-dichlorophenyl)-3-methyl-1H-1,2,4-triazol-5-yl)-5-hydroxy-6-(hydroxymethyl)tetrahydro-2H-pyran-3-yl ((2S,3R,4S,5R,6R)-4-(4-(4-chloro-3,5-difluorophenyl)-1H-1,2,3-triazol-1-yl)-2-(1-(2,5-dichlorophenyl)-3-methyl-1H-1,2,4-triazol-5-yl)-5-hydroxy-6-(hydroxymethyl)tetrahydro-2H-pyran-3-yl) propane-1,3-diyldicarbamate]	110 nM
Cc1nc([C@H]2O[C@@H](CO)[C@@H](O)[C@@H](n3cc(-c4cc(F)c(Cl)c(F)c4)nn3)[C@@H]2OCC(=O)N(C)CCN(C)C(=O)CO[C@@H]2[C@@H](n3cc(-c4cc(F)c(Cl)c(F)c4)nn3)[C@@H](O)[C@@H](CO)O[C@H]2c2nc(C)nn2-c2cc(Cl)ccc2Cl)n(-c2cc(Cl)ccc2Cl)n1 [Example 21]	2 nM
Cc1nc([C@H]2O[C@@H](CO)[C@@H](O)[C@@H](n3cc(-c4cc(F)c(Cl)c(F)c4)nn3)[C@@H]2OCC(=O)N2CCN(C(=O)CO[C@@H]3[C@@H](n4cc(-c5cc(F)c(Cl)c(F)c5)nn4)[C@@H](O)[C@@H](CO)O[C@H]3c3nc(C)nn3-c3cc(Cl)ccc3Cl)CC2)n(-c2cc(Cl)ccc2Cl)n1 [Example 22]	4 nM
Cc1nc([C@H]2O[C@@H](CO)[C@@H](O)[C@@H](n3cc(-c4cc(F)c(Cl)c(F)c4)nn3)[C@@H]2OCC(=O)N2CCCN(C(=O)CO[C@@H]3[C@@H](n4cc(-c5cc(F)c(Cl)c(F)c5)nn4)[C@@H](O)[C@@H](CO)O[C@H]3c3nc(C)nn3-c3cc(Cl)ccc3Cl)CC2)n(-c2cc(Cl)ccc2Cl)n1 [Example 23]	4 nM

Now from value to molecule:

IC50	Structure (SMILES)
10 nM	Cc1nc([C@H]2O[C@@H](CO)[C@@H](O)[C@@H](n3cc(-c4ccc(Cl)c(F)c4)nn3)[C@@H]2OCC(=O)NCCCCCNC(=O)CO[C@@H]2[C@@H](n3cc(-c4ccc(Cl)c(F)c4)nn3)[C@@H](O)[C@@H](CO)O[C@H]2c2nc(C)nn2-c2cc(Cl)ccc2Cl)n(-c2cc(Cl)ccc2Cl)n1 [Example 5]
6 nM	Cc1nc([C@H]2O[C@@H](CO)[C@@H](O)[C@@H](n3cc(-c4cc(F)c(Cl)c(F)c4)nn3)[C@@H]2OCC(=O)NCCCCCCNC(=O)CO[C@@H]2[C@@H](n3cc(-c4cc(F)c(Cl)c(F)c4)nn3)[C@@H](O)[C@@H](CO)O[C@H]2c2nc(C)nn2-c2cc(Cl)ccc2Cl)n(-c2cc(Cl)ccc2Cl)n1 [Example 9]
10 nM	Cc1nc([C@H]2O[C@@H](CO)[C@@H](O)[C@@H](n3cc(-c4cc(F)c(Cl)c(F)c4)nn3)[C@@H]2OCC(=O)NCCCCCCCNC(=O)CO[C@@H]2[C@@H](n3cc(-c4cc(F)c(Cl)c(F)c4)nn3)[C@@H](O)[C@@H](CO)O[C@H]2c2nc(C)nn2-c2cc(Cl)ccc2Cl)n(-c2cc(Cl)ccc2Cl)n1 [Example 10]
1 nM	Cc1nc([C@H]2O[C@@H](CO)[C@@H](O)[C@@H](n3cc(-c4cc(F)c(Cl)c(F)c4)nn3)[C@@H]2OCC(=O)NCCCCCNC(=O)CO[C@@H]2[C@@H](n3cc(-c4cc(F)c(Cl)c(F)c4)nn3)[C@@H](O)[C@@H](CO)O[C@H]2c2nc(C)nn2-c2cc(Cl)ccc2Cl)n(-c2cc(Cl)ccc2Cl)n1 [Example 11]
1 nM	Cc1nc([C@H]2O[C@@H](CO)[C@@H](O)[C@@H](n3cc(-c4cc(F)c(Cl)c(F)c4)nn3)[C@@H]2OCC(=O)NCCCCNC(=O)CO[C@@H]2[C@@H](n3cc(-c4cc(F)c(Cl)c(F)c4)nn3)[C@@H](O)[C@@H](CO)O[C@H]2c2nc(C)nn2-c2cc(Cl)ccc2Cl)n(-c2cc(Cl)ccc2Cl)n1 [Example 12]
1 nM	Cc1nc([C@H]2O[C@@H](CO)[C@@H](O)[C@@H](n3cc(-c4cc(F)c(Cl)c(F)c4)nn3)[C@@H]2OCC(=O)NCCNC(=O)CO[C@@H]2[C@@H](n3cc(-c4cc(F)c(Cl)c(F)c4)nn3)[C@@H](O)[C@@H](CO)O[C@H]2c2nc(C)nn2-c2cc(Cl)ccc2Cl)n(-c2cc(Cl)ccc2Cl)n1 [Example 13]
10000 nM	Cc1nc([C@H]2O[C@@H](CO)[C@@H](O)[C@@H](n3cc(-c4ccc(Cl)c(F)c4)nn3)[C@@H]2OCCCCCCCCCCO[C@@H]2[C@@H](n3cc(-c4ccc(Cl)c(F)c4)nn3)[C@@H](O)[C@@H](CO)O[C@H]2c2nc(C)nn2-c2cc(Cl)ccc2Cl)n(-c2cc(Cl)ccc2Cl)n1 [Example 16, (2R,3R,4S,5R,6S)-4-(4-(4-chloro-3-fluorophenyl)-1H-1,2,3-triazol-1-yl)-5-((10-(((2R,3S,4R,5S,6S)-4-(4-(4-chloro-3-fluorophenyl)-1H-1,2,3-triazol-1-yl)-2-(1-(2,5-dichlorophenyl)-3-methyl-1H-1,2,4-triazol-5-yl)-5-hydroxy-6-(hydroxymethyl)tetrahydro-2H-pyran-3-yl)oxy)decyl)oxy)-6-(1-(2,5-dichlorophenyl)-3-methyl-1H-1,2,4-triazol-5-yl)-2-(hydroxymethyl)tetrahydro-2H-pyran-3-ol]
2000 nM	Cc1nc([C@H]2O[C@@H](CO)[C@@H](O)[C@@H](n3cc(-c4cc(F)c(Cl)c(F)c4)nn3)[C@@H]2OCCCCCCCCO[C@@H]2[C@@H](n3cc(-c4cc(F)c(Cl)c(F)c4)nn3)[C@@H](O)[C@@H](CO)O[C@H]2c2nc(C)nn2-c2cc(Cl)ccc2Cl)n(-c2cc(Cl)ccc2Cl)n1 [Example 17, (2R,3R,4S,5R,6S)-4-(4-(4-chloro-3,5-difluorophenyl)-1H-1,2,3-triazol-1-yl)-5-((8-(((2R,3S,4R,5S,6S)-4-(4-(4-chloro-3,5-difluorophenyl)-1H-1,2,3-triazol-1-yl)-2-(1-(2,5-dichlorophenyl)-3-methyl-1H-1,2,4-triazol-5-yl)-5-hydroxy-6-(hydroxymethyl)tetrahydro-2H-pyran-3-yl)oxy)octyl)oxy)-6-(1-(2,5-dichlorophenyl)-3-methyl-1H-1,2,4-triazol-5-yl)-2-(hydroxymethyl)tetrahydro-2H-pyran-3-ol]
